{"source": "the Kinase Knowledgebase extract (Sharma et al. 2016)"}
{"target": "PIK3CG (human) (UniProt P48736)", "sequence (P48736 whole entry, looked up)": "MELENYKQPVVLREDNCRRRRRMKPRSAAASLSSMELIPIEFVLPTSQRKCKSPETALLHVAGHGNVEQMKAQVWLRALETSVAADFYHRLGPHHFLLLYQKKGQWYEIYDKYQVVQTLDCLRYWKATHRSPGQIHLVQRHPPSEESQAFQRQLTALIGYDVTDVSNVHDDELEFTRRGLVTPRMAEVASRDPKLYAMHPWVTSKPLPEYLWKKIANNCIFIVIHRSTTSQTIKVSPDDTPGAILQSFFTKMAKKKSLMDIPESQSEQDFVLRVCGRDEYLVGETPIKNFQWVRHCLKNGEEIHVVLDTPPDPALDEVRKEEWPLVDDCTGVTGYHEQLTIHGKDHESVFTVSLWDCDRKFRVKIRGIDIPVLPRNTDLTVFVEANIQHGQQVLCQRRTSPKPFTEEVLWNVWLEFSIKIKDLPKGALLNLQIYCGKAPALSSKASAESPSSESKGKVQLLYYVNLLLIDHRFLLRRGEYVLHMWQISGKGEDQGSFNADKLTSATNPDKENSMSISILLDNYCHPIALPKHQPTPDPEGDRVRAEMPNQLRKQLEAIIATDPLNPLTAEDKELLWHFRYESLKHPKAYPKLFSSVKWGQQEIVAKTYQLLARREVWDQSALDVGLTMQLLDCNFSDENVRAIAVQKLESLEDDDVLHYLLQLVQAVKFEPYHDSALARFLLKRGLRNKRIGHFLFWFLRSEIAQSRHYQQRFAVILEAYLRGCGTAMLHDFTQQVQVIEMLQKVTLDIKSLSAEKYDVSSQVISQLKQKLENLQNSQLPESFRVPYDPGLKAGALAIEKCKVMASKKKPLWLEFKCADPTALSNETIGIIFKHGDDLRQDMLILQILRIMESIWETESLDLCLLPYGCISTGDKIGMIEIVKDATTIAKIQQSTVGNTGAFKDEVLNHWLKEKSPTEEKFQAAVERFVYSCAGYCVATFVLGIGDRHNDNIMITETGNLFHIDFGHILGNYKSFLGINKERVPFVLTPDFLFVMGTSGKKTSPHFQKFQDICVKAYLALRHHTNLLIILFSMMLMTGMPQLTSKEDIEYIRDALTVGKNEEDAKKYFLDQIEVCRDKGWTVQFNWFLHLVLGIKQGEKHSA", "assay": "Assessment of PIK3CG Kinase Activity", "units": {"IC50": "nM"}}
{"smiles": "CC(=O)Nc1nc2c(s1)-c1nc(-n3cccn3)ncc1CC2", "IC50": "< 800"}
{"smiles": "CC(=O)Nc1nc2c(s1)-c1nn(C(=O)c3ccco3)cc1CC2", "IC50": "< 800"}
{"smiles": "CC(=O)Nc1nc2c(s1)-c1c(cnn1-c1ccc(CC(=O)NCCCN(C)C)cc1)CC2", "IC50": "< 800"}
{"smiles": "CC(=O)Nc1nc2c(s1)-c1c(cnn1-c1ccc(CC(=O)N3CCCC3c3ccccn3)cc1)CC2", "note": "(stereo not drawn)", "IC50": "< 800"}
{"smiles": "COCc1nn(-c2ccccc2Cl)c2c1CCc1nc(NC(C)=O)sc1-2", "IC50": "< 800"}
{"smiles": "CC(=O)Nc1nc2c(s1)-c1c(c([C@H]3CCCO3)nn1-c1ccc(C(=O)N(C)Cc3ccncc3)cc1Cl)CC2", "IC50": "< 800"}
{"smiles": "CC(=O)Nc1nc2c(s1)-c1c(cnn1-c1ccc(CC(=O)NCCN3CCCC3=O)cc1)CC2", "IC50": "< 800"}
{"smiles": "CC(=O)Nc1nc2c(s1)-c1nc(N3CCC4(CN(C)C4)C3)ncc1CC2", "IC50": "< 800"}
{"smiles": "CC(=O)Nc1nc2c(s1)-c1c(c(-c3ccoc3)nn1-c1ccccc1Cl)CC2", "IC50": "< 800"}
{"smiles": "CC(=O)Nc1nc2c(s1)-c1c(c(C(=O)O)nn1-c1ccccc1Cl)CC2", "IC50": "< 800"}
{"smiles": "CC(=O)Nc1nc2c(s1)-c1c(cnn1-c1ccc(C(F)(F)F)cc1)CC2", "IC50": "< 800"}
{"smiles": "CC(=O)Nc1nc2c(s1)-c1c(cnn1-c1ccc(CC(=O)N3CCc4cn[nH]c4C3)cc1)CC2", "IC50": "< 800"}
{"smiles": "CC(=O)Nc1nc2c(s1)-c1c(c(C(=O)NCCO)nn1-c1ccccc1)CC2", "IC50": "< 800"}
{"smiles": "O=C(CNC[C@H](O)[C@@H](O)[C@H](O)[C@H](O)CO)Nc1nc2c(s1)-c1c(cnn1-c1ccccc1)CC2", "IC50": "< 800"}
{"smiles": "CC(=O)Nc1nc2c(s1)-c1c(cnn1-c1cccc(Cl)c1)C2", "IC50": "< 800"}
{"smiles": "CC(=O)Nc1nc2c(s1)-c1c(c(C(=O)N3CCOCC3)nn1-c1ccccc1Cl)CC2", "IC50": "< 800"}
{"smiles": "CC(=O)Nc1nc2c(s1)-c1c(cnn1-c1ccc(C(=O)N3CCC(N4CCOCC4)CC3)cc1)CC2", "IC50": "< 800"}
{"smiles": "CC(=O)Nc1nc2c(s1)-c1c(c(C(=O)O)nn1-c1ccccc1)CC2", "IC50": "< 800"}
{"smiles": "CC(=O)Nc1nc2c(s1)-c1c(cnn1-c1ccc(C(=O)N[C@H]3CC[C@H](N4CCN(S(C)(=O)=O)CC4)CC3)cc1)CC2", "IC50": "< 800"}
{"smiles": "COc1ccccc1-c1ncc2c(n1)-c1sc(NC(C)=O)nc1CC2", "IC50": "< 800"}
{"smiles": "CC(=O)Nc1nc2c(s1)-c1c(c(C(C)C)nn1-c1ccc(C(=O)N(C)C3CCN(C)CC3)cc1Cl)CC2", "IC50": "< 800"}
{"smiles": "CC(=O)Nc1nc2c(s1)-c1c(cnn1-c1ccc(C(=O)N[C@@H](CC(=O)O)C(N)=O)cc1Cl)CC2", "IC50": "< 800"}
{"smiles": "COc1cccc(-n2ncc3c2-c2sc(NC(C)=O)nc2CC3)c1", "IC50": "< 800"}
{"smiles": "CC(=O)Nc1nc2c(s1)-c1c(cnn1-c1ccccc1C(F)(F)F)CC2", "IC50": "< 800"}
{"smiles": "CC(=O)Nc1nc2c(s1)-c1c(cnn1-c1ccc(CCNC(=O)c3ccccc3)cc1)CC2", "IC50": "< 800"}
{"smiles": "CC(=O)Nc1nc2c(s1)-c1c(cnn1-c1ccc(C(=O)N3CCCC(=O)CC3)cc1)CC2", "IC50": "< 800"}
{"smiles": "CC(=O)Nc1nc2c(s1)-c1c(c(C(C)C)nn1-c1ccc(C(=O)NCc3ccncc3)cc1Cl)CC2", "IC50": "< 800"}
{"smiles": "CCOC(=O)c1n[nH]c2c1CCc1nc(NC(C)=O)sc1-2", "IC50": "< 800"}
{"smiles": "COC(=O)c1nn(-c2ccc(C)cc2)c2c1CCc1nc(NC(C)=O)sc1-2", "IC50": "< 800"}
{"smiles": "CNC(=O)c1ccc(-c2ncc3c(n2)-c2sc(NC(C)=O)nc2CC3)cc1", "IC50": "< 800"}
{"smiles": "CC(=O)Nc1nc2c(s1)-c1c(cnn1-c1ccccc1)C2", "IC50": "< 800"}
{"smiles": "CC(=O)Nc1nc2c(s1)-c1c(cnn1-c1ccc(C(=O)N3CCC[C@H]3C(N)=O)cc1)CC2", "IC50": "< 800"}
{"smiles": "CC(=O)Nc1nc2c(s1)-c1c(cnn1-c1ccc(C(=O)NC(C)(C)CN3CCOCC3)cc1)CC2", "IC50": "< 800"}
{"smiles": "CC(=O)Nc1nc2c(s1)-c1nc(N3CCCOCC3)ncc1CC2", "IC50": "< 800"}
{"smiles": "CC(=O)Nc1nc2c(s1)-c1nc(-c3ccc(C(N)=O)cc3)ncc1CC2", "IC50": "< 800"}
{"smiles": "CCC(=O)Nc1nc2c(s1)-c1nc(-c3ccccc3)ncc1CC2", "IC50": "< 800"}
{"smiles": "CC(=O)Nc1nc2c(s1)-c1c(cnn1-c1ccc(C(=O)NCc3ccc(C(N)=O)cc3)cc1)CC2", "IC50": "< 800"}
{"smiles": "CC(=O)Nc1nc2c(s1)-c1c(c(C(=O)N(C)CCO)nn1-c1ccccc1)CC2", "IC50": "< 800"}
{"smiles": "O=C(Nc1nc2c(s1)-c1nc(-c3ccccc3)ncc1CC2)N1CCOCC1", "IC50": "< 800"}
{"smiles": "CC(=O)Nc1nc2c(s1)-c1c(c(-c3c[nH]cn3)nn1-c1ccccc1Cl)CC2", "IC50": "< 800"}
{"smiles": "CN(C)CCNC(=O)Nc1nc2c(s1)-c1c(cnn1-c1ccccc1Cl)C2", "IC50": "< 800"}
{"smiles": "CC(=O)Nc1nc2c(s1)-c1nc(N3CCCC3=O)ncc1CC2", "IC50": "< 800"}
{"smiles": "CC(=O)Nc1nc2c(s1)-c1c(c(C(C)C)nn1-c1ccccc1C(F)(F)F)CC2", "IC50": "< 800"}
{"smiles": "CC(=O)Nc1nc2c(s1)-c1c(cnn1-c1ccc(C(=O)N[C@@H](CCS(C)(=O)=O)C(N)=O)cc1Cl)CC2", "IC50": "< 800"}
{"smiles": "CN(C)CCCC(=O)Nc1nc2c(s1)-c1c(cnn1-c1ccccc1)C2", "IC50": "< 800"}
{"smiles": "CC(=O)Nc1nc2c(s1)-c1c(cnn1-c1ccc(C(=O)N(C)CC(C)O)cc1)CC2", "note": "(stereo not drawn)", "IC50": "< 800"}
{"smiles": "CC(=O)Nc1nc2c(s1)-c1c(cnn1-c1ccc(C(=O)N[C@H]3CC[C@@H](N4CCOCC4)CC3)cc1)CC2", "IC50": "< 800"}
{"smiles": "CC(=O)Nc1nc2c(s1)-c1c(cnn1-c1ccc(C(=O)N3CCOCC3)cc1)CC2", "IC50": "< 800"}
